Experimental data published in patent US9193722B2, “Tri-cyclic pyrazolopyridine kinase inhibitors” (Vertex Pharmaceuticals Incorporated, priority 2008, dated 2015).

Key:
Type in all cases: biochemical
PKC alpha kinase = PKC alpha kinase (Homo sapiens, UniProt P17252); test: PKC alpha kinase inhibition, coupled-enzyme (NADH absorbance) assay, Ki; conditions: 130 μM ATP, 4.5 nM PKC alpha kinase, 30° C.
Procedure: (§1) An assay buffer solution was prepared which consisted of 100 mM HEPES (pH 7.5), 10 mM MgCl2, 25 mM NaCl, 0.1 mM EDTA, 100 μM CaCl2 and 0.01% Brij. […] To 16 μL of this enzyme buffer, in a 384 well plate, was added 1 μL of VRT stock solution in DMSO. The mixture was allowed to equilibrate for 10 mins at 30° C. The enzyme reaction was initiated by the addition of 16 μL stock ATP solution prepared in assay buffer to a final assay concentration of 130 μM. Initial rate data was determined from the rate of change of absorbance at 340 nm (corresponding to stoichiometric consumption of NADH) using a Molecular Devices Spectramax plate reader (Sunnyvale, Calif.) over 15 mins at 30° C. […] Ki values were calculated from initial rate data by non-linear regression using the Prism software package (Prism 4.0a, Graphpad Software, San Diego, Calif.).

PKC theta kinase = PKC theta kinase (Homo sapiens, UniProt Q04759); test: PKC theta kinase inhibition, coupled-enzyme (NADH absorbance) assay, Ki; conditions: 240 μM ATP, 18 nM PKC theta kinase, 30° C.
Procedure: An assay buffer solution was prepared which consisted of 100 mM HEPES (pH 7.5), 10 mM MgCl2, 25 mM NaCl, 0.1 mM EDTA and 0.01% Brij. […] To 60 μL of this enzyme buffer, in a 384 well plate, was added 2 μL of VRT stock solution in DMSO. The mixture was allowed to equilibrate for 10 mins at 30° C. […] Ki values were calculated from initial rate data by non-linear regression using the Prism software package (Prism 4.0a, Graphpad Software, San Diego, Calif.).

PKC delta kinase = PKC delta kinase (Homo sapiens, UniProt Q05655); test: PKC delta kinase inhibition, coupled-enzyme (NADH absorbance) assay, Ki; conditions: 150 μM ATP, 46 nM PKC delta kinase, 30° C.; read-out: Ki PKC delta
Procedure: as §1, with “EDTA” for “EDTA, 100 μM CaCl2”, “150” for “130”

PKC theta kinase, sequence (Q04759 whole entry): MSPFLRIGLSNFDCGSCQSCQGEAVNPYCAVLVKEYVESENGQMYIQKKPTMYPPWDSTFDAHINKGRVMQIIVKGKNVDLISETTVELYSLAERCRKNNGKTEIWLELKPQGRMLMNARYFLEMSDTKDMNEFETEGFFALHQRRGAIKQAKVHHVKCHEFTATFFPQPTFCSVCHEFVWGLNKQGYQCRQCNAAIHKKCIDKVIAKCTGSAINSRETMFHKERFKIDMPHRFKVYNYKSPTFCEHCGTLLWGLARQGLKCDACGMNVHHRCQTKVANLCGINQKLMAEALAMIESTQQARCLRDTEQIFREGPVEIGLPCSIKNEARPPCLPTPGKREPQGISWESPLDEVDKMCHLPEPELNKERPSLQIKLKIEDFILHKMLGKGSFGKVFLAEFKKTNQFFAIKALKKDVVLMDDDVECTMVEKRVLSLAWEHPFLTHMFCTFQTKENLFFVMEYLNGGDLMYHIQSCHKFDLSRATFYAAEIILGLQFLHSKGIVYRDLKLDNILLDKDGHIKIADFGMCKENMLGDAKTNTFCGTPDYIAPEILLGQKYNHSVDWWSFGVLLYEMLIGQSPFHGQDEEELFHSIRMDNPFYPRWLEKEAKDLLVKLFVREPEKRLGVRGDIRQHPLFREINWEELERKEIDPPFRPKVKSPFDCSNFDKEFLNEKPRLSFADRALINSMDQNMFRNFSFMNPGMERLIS
PKC delta kinase, sequence (Q05655 whole entry): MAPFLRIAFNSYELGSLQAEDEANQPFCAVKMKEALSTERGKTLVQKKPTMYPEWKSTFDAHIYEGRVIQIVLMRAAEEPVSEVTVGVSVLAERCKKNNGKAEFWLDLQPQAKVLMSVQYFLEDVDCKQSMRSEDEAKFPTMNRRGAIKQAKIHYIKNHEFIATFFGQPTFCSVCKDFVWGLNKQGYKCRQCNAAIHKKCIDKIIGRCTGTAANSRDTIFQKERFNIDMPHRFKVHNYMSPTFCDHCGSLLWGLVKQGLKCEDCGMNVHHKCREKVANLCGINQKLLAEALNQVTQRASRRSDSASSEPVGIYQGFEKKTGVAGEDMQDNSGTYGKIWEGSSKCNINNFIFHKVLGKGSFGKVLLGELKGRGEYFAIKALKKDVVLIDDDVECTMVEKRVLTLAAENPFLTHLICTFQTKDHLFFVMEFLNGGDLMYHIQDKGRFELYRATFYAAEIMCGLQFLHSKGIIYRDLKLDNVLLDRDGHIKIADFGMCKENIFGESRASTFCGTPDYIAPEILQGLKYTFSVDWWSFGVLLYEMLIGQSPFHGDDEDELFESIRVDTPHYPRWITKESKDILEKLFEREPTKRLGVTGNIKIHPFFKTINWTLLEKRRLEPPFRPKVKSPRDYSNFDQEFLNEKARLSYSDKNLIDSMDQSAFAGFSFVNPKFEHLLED

SMILES | Ki (PKC alpha kinase) [nM] | Ki (PKC theta kinase) [nM] | Ki (PKC delta kinase) [nM]
Cc1cccc(C2CN(c3ccc(C(F)(F)F)c(-c4n[nH]c5ncccc45)n3)CCN2)c1 (stereo not shown) [Compound 134] | < 2800 | < 50 | < 2800
Fc1ccc(N2CCC(F)CC2)nc1-c1n[nH]c2ncccc12 [Compound 267] | > 1250 | > 700 | > 1250
CC(C)C(C)(O)C1CN(c2ccc(F)c(-c3n[nH]c4ncccc34)n2)CCN1 (stereo not shown) [Compound 205] | > 1250 |  | > 1250
CNC(C1CCCN(c2ccc(F)c(-c3n[nH]c4ncccc34)n2)C1)C(C)(C)C (stereo not shown) [Compound 409] |  | < 50 | < 2800
CC(C)C(C)(O)C1CN(c2cncc(-c3n[nH]c4ncccc34)n2)CCN1 (stereo not shown) [Compound 470] | < 500 |  | 
CCC1CN(c2ccc(C(F)(F)F)c(-c3n[nH]c4ncccc34)n2)CCC1CN (stereo not shown) [Compound 465] | > 1250 | < 500 | 
CC1(CN)CCN(c2ccc(C(F)(F)F)c(-c3n[nH]c4ncccc34)n2)CC1 [Compound 463] | > 1250 | > 700 | 
C#Cc1cnc2[nH]nc(-c3cccc(N4CCCNCC4)n3)c2c1 [Compound 2] |  | < 500 | 
CC(C)C(C)(O)C1CN(c2ccc(F)c(-c3n[nH]c4ncccc34)n2)CCN1 (stereo not shown) [Compound 180] | > 1250 |  | < 500
CC(C)CC1(C#N)CCN(c2ccc(F)c(-c3n[nH]c4ncccc34)n2)CC1 [Compound 417] | > 1250 | > 700 | 
CC(C)C[C@@H]1CN(c2ccc(F)c(-c3n[nH]c4ncccc34)n2)CCN1 [Compound 192] | > 1250 |  | < 2800
CC(C)C[C@H]1CN(c2ccc(F)c(-c3n[nH]c4ncccc34)n2)CCN1 [Compound 112] | > 1250 |  | < 500
CCC(N)C1(C(F)(F)F)CCN(c2ccc(F)c(-c3n[nH]c4ncccc34)n2)C1 (stereo not shown) [Compound 449] |  | > 700 | > 1250
COC[C@H]1CN(c2ccc(F)c(-c3n[nH]c4ncccc34)n2)CCN1 [Compound 185] | > 1250 |  | 
NCC1CN(c2ccc(F)c(-c3n[nH]c4ncccc34)n2)CCC1O (stereo not shown) [Compound 297] |  |  | > 1250
CC(C)CC1(C)CN(c2ccc(C(F)(F)F)c(-c3n[nH]c4ncccc34)n2)CCC1N (stereo not shown) [Compound 388] |  | < 50 | < 500
C[C@](O)(c1ccccc1)[C@@H]1CN(c2ccc(F)c(-c3n[nH]c4ncccc34)n2)CCN1 [Compound 276] |  | < 50 | 
CC1(C#N)CCN(c2ccc(C(F)(F)F)c(-c3n[nH]c4ncccc34)n2)CC1 [Compound 415] | > 1250 | > 700 | 
CC(C)CC1CN(c2cncc(-c3n[nH]c4ncccc34)n2)CCC1N (stereo not shown) [Compound 468] | < 500 | < 50 | 

SMILES | Ki (PKC alpha kinase) [nM] | Ki (PKC theta kinase) [nM] | Ki (PKC delta kinase) [nM]
CC1(C#N)CCN(c2ccc(F)c(-c3n[nH]c4ncccc34)n2)CC1 [Compound 416] | > 1250 | > 700 | 
CC(C)C(C)(O)C1CN(c2ccc(F)c(-c3n[nH]c4ncccc34)n2)CCN1 (stereo not shown) [Compound 200] | > 1250 |  | > 1250
CC(O)(C1CC1)C1CN(c2ccc(F)c(-c3n[nH]c4ncccc34)n2)CCN1 (stereo not shown) [Compound 272] | > 1250 |  | < 500
CC(C)C(C)(O)C1CN(c2ccc(F)c(-c3n[nH]c4ncccc34)n2)CCN1 (stereo not shown) [Compound 201] | < 2800 |  | < 500
CC(C)C(C)(O)C1CN(c2ccc(Cl)c(-c3n[nH]c4ncccc34)n2)CCN1 (stereo not shown) [Compound 438] |  |  | < 500
CC(O)(C1CC1)C1CN(c2ccc(F)c(-c3n[nH]c4ncccc34)n2)CCN1 (stereo not shown) [Compound 271] | > 1250 |  | < 500
N#CCCC1CN(c2ccc(C(F)(F)F)c(-c3n[nH]c4ncccc34)n2)CCC1O (stereo not shown) [Compound 460] |  | < 500 | 
CC(O)(c1ccccc1)C1CN(c2ccc(F)c(-c3n[nH]c4ncccc34)n2)CCN1 (stereo not shown) [Compound 323] |  | < 50 | < 2800
CC(O)(C1CC1)C1CN(c2ccc(F)c(-c3n[nH]c4ncccc34)n2)CCN1 (stereo not shown) [Compound 273] | > 1250 |  | < 2800
CC(C)C(C)(O)C1CN(c2ccc(F)c(-c3n[nH]c4ncccc34)n2)CCN1 (stereo not shown) [Compound 204] | > 1250 |  | < 500
CC(C)C(C)(O)C1CN(c2ccc(F)c(-c3n[nH]c4ncccc34)n2)CCN1 (stereo not shown) [Compound 179] | < 2800 |  | < 500
CC(C)CC1(C)CN(c2ccc(C(F)(F)F)c(-c3n[nH]c4ncccc34)n2)CCC1N (stereo not shown) [Compound 158] | < 500 |  | 
CC(C)C(C)(O)C1CN(c2ccc(F)c(-c3n[nH]c4ncccc34)n2)CCN1C (stereo not shown) [Compound 231] |  | < 50 | < 500
CC(C)C(C)(O)C1CN(c2cc(CO)cc(-c3n[nH]c4ncccc34)n2)CCN1 (stereo not shown) [Compound 455] | > 1250 |  | 
CC(C)C(C)(O)C1CN(c2ccc(C(F)(F)F)c(-c3n[nH]c4ncccc34)n2)CCN1 (stereo not shown) [Compound 237] |  |  | < 2800
CC(C)C(C)(O)C1CN(c2ccc(F)c(-c3n[nH]c4ncccc34)n2)CCN1C (stereo not shown) [Compound 229] | > 1250 |  | > 1250
COC(C)(C(C)C)C1CN(c2ccc(F)c(-c3n[nH]c4ncccc34)n2)CCN1 (stereo not shown) [Compound 239] | > 1250 |  | 
CC(C)(C)C(N)C1CCN(c2ccc(F)c(-c3n[nH]c4ncccc34)n2)C1 (stereo not shown) [Compound 422] |  |  | < 2800

Other lines, results leading:

Ki (PKC alpha kinase) [nM] | Ki (PKC theta kinase) [nM] | Ki (PKC delta kinase) [nM] | SMILES
< 2800 | < 500 | < 500 | NC1CCCN(c2cccc(-c3n[nH]c4ncccc34)n2)C1 (stereo not shown) [Compound 68]
> 1250 |  |  | C[C@@H]1CN(c2cccc(-c3n[nH]c4ncccc34)n2)CCN1 [Compound 70]
< 2800 |  |  | CC(C)C[C@@H]1CN(c2cccc(-c3n[nH]c4ncccc34)n2)CCN1 [Compound 235]
< 2800 |  |  | CC[C@@H]1CN(c2cccc(-c3n[nH]c4ncccc34)n2)CCN1 [Compound 67]
< 2800 |  |  | CC(C)[C@H]1CN(c2cccc(-c3n[nH]c4ncccc34)n2)CCN1 [Compound 62]
< 2800 |  |  | c1cc(-c2n[nH]c3ncccc23)nc(N2CCNCC2)c1 [Compound 9]
 | < 50 |  | CC(C)C(C)(O)C1CN(c2cccc(-c3n[nH]c4ncccc34)n2)CCN1 (stereo not shown) [Compound 178]
< 2800 |  |  | CC(C)C[C@H]1CN(c2cccc(-c3n[nH]c4ncccc34)n2)CCN1 [Compound 7, (S)-3-(6-(3-isobutylpiperazin-1-yl)pyridin-2-yl)-1H-pyrazolo[3,4-b]pyridine]
 | > 700 |  | Fc1ccc(N2CCCC(C3CCCN3)C2)nc1-c1n[nH]c2ncccc12 (stereo not shown) [Compound 315]
< 500 |  |  | CC(C)C[C@H]1CN(c2cccc(-c3n[nH]c4ncccc34)n2)CC[C@H]1N [Compound 168]
 | < 50 | < 500 | c1cc(-c2n[nH]c3ncccc23)nc(N2CCCNCC2)c1 [Compound 1]
 |  | > 1250 | CCC(CC)C(N)C1CCCN(c2ccc(F)c(-c3n[nH]c4ncccc34)n2)C1 (stereo not shown) [Compound 392]
 | < 500 | < 2800 | CC(N)[C@H]1CCCN(c2ccc(F)c(-c3n[nH]c4ncccc34)n2)C1 (stereo partly shown) [Compound 263]
< 2800 |  |  | c1ccc(C2CN(c3cccc(-c4n[nH]c5ncccc45)n3)CCN2)cc1 (stereo not shown) [Compound 21]
 |  | < 2800 | CC(C)(C)CC(N)C1CCCN(c2ccc(F)c(-c3n[nH]c4ncccc34)n2)C1 (stereo not shown) [Compound 318]
 | > 700 |  | CC(C)C(O)[C@@H]1CCCN(c2ccc(F)c(-c3n[nH]c4ncccc34)n2)C1 (stereo partly shown) [Compound 279]
> 1250 |  |  | C[C@H]1CN(c2cccc(-c3n[nH]c4ncccc34)n2)CCN1 [Compound 19]
